Here are results for 33 compounds from patent US7026339B2, “Inhibitors of HCV NS5B polymerase” (priority 2003, dated 2006).

As usually defined, the IC50 is the concentration that gives 50% inhibition.

The subject of one assay is HuH-7 replicon cells 5–15 and 9–13 (HCV replication). Description: Inhibition of viral replication in HuH-7 replicon cells (HCV RNA / GAPDH RNA by multiplex RT-PCR). It counts as cell-based. The conditions noted are these: Hepatitis C virus, 72 h; inhibiting 50% of replication; HuH-7 replicon cells, 3 days; read-out: IC50. The essentials: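 Replicon cells seeded at 7×10^3 cells/well, grown 24 h, then exposed 3 days at 37 °C to compound at final 100 μM–1 μM (1% DMSO). Multiplex TaqMan RT-PCR on total RNA quantified HCV 5′-UTR and GAPDH RNA against a standard curve; HCV/GAPDH ratio reported as percent of untreated control.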
Background: In antiviral work, replicon cells carry a viral genome segment that copies itself.
Regarding `CN(c1ccccc1/C=N/NC(=O)Cc1cccc(Cl)c1)S(=O)(=O)c1ccc(C(F)(F)F)cc1` [Compound 244, N-[2-((E)-{[(3-chlorophenyl)acetyl]hydrazono}methyl)-phenyl]-N-methyl-4-(trifluoromethyl)benzenesulfonamide], the IC50 was below 5 µM.

Consider `O=C(Cc1ccccc1)N/N=C/c1ccccc1OS(=O)(=O)c1ccc(Cl)c(Cl)c1` [Compound 125, 2-{(E)-[2-(2-phenylacetyl)hydrazono]methyl}phenyl3,4-dichlorobenzenesulfonate], for which the IC50 was below 5 µM.

As for `Cc1ccc(S(=O)(=O)Cc2ccccc2/C=N/NC(=O)Cc2cccc(Cl)c2)cc1` [Compound 231, 2-(3-chlorophenyl)-N′-[(1E)-(2-{[(4-methylphenyl)sulfonyl]methyl}phenyl)-methylene]acetohydrazide], the IC50 was below 5 µM.

Take `COc1cc(OC)c(CC(=O)N/N=C/c2ccccc2OS(=O)(=O)c2ccc(C(F)(F)F)cc2)c(OC)c1` [Compound 66, 2-((E)-{2-[2-(2,4,6-trimethoxyphenyl)acetyl]hydrazono}methyl)-phenyl 4-(trifluoromethyl)benzenesulfonate]: the IC50 was 5 to 50 µM.

With `COc1cccc(CC(=O)N/N=C/c2cc(C)ccc2OS(=O)(=O)c2ccc(C(F)(F)F)cc2)c1` [Compound 171, 2-((E)-{[(3-methoxyphenyl)acetyl]hydrazono}methyl)-4-methylphenyl 4-(trifluoromethyl)benzenesulfonate], the IC50 is below 5 µM.

As for `O=C(Cc1cccc(Br)c1)N/N=C/c1ccccc1NS(=O)(=O)c1ccc(C(F)(F)F)cc1` [Compound 241, N-[2-((E)-{[(3-bromophenyl)acetyl]hydrazono}methyl)-phenyl]-4-(trifluoromethyl)benzenesulfonamide], the half-maximal inhibitory concentration (IC50) was above 50 µM.

As for `O=C(Cc1cccc(Cl)c1)N/N=C/c1cc(F)ccc1OS(=O)(=O)c1ccc(C(F)(F)F)cc1` [Compound 176, 2-((E)-{[(3-chlorophenyl)acetyl]hydrazono}methyl)-4-fluorophenyl 4-(trifluoromethyl)benzenesulfonate], the IC50 was below 5 µM.

With `CN(c1ccccc1/C=N/NC(=O)Cc1ccccc1)S(=O)(=O)c1ccc(C(F)(F)F)cc1` [Compound 243, N-methyl-N-(2-{(E)-[(phenylacetyl)hydrazono]methyl}phenyl)-4-(trifluoromethyl)benzenesulfonamide], the concentration for half-maximal inhibition (IC50) is below 5 µM.

Consider `COc1cccc(CC(=O)N/N=C/c2cccc(OC)c2OS(=O)(=O)c2ccc(C(F)(F)F)cc2)c1` [Compound 165, 2-methoxy-6-((E)-{[(3-methoxyphenyl)acetyl]hydrazono}methyl)-phenyl 4-(trifluoromethyl)-benzenesulfonate], for which the IC50 was below 5 µM.

As to `O=C(Cc1ccc(Cl)c(Cl)c1)N/N=C/c1ccccc1OS(=O)(=O)c1ccc(C(F)(F)F)cc1` [Compound 38, 2-((E)-{2-[2-(3,4-dichlorophenyl)acetyl]hydrazono}methyl)-phenyl 4-(trifluoromethyl)benzenesulfonate], the IC50 is below 5 µM.

As for `COc1cccc(CC(=O)N/N=C/c2ccc(C)cc2OS(=O)(=O)c2ccc(C(F)(F)F)cc2)c1` [Compound 178, 2-((E)-{[(3-methoxyphenyl)acetyl]hydrazono}methyl)-5-methylphenyl 4-(trifluoromethyl)benzenesulfonate], the IC50 was below 5 µM.

With `COc1cccc(CC(=O)N/N=C/c2c(OS(=O)(=O)c3ccc(C)cc3)ccc3ccccc23)c1` [Compound 162, 1-((E)-{2-[2-(3-methoxyphenyl)acetyl]hydrazono}methyl)-2-naphthyl 4-methylbenzenesulfonate], the IC50 was in the range of 5 to 50 µM.

In the case of `COc1cccc(CC(=O)N/N=C/c2ccc(Cl)cc2OS(=O)(=O)c2ccc(C(F)(F)F)cc2)c1` [Compound 210, 5-chloro-2-((E)-{[(3-methoxyphenyl)acetyl]hydrazono}methyl)-phenyl 4-(trifluoromethyl)benzenesulfonate], the IC50 fell in the range of 5 to 50 µM.

On to `N#Cc1ccc(S(=O)(=O)Oc2ccccc2/C=N/NC(=O)Cc2ccccc2)cc1` [Compound 115, 2-{(E)-[2-(2-phenylacetyl)hydrazono]methyl}phenyl 4-cyanobenzenesulfonate], for which the IC50 is 5 to 50 µM.

As to `O=C(N/N=C/c1ccccc1OS(=O)(=O)c1ccc(C(F)(F)F)cc1)c1ccccc1C(F)(F)F` [Compound 104, 2-((E)-{2-[2-(trifluoromethyl)benzoyl]hydrazono}methyl)-phenyl 4-(trifluoromethyl)benzenesulfonate], the IC50 is below 5 µM.

For the compound `COc1cccc(CC(=O)N/N=C/c2cccc(Cl)c2OS(=O)(=O)c2ccc(C)cc2)c1` [Compound 180, 2-chloro-6-((E)-{[(3-methoxyphenyl)acetyl]hydrazono}methyl)-phenyl 4-methylbenzenesulfonate], the IC50 was below 5 µM.

`O=C(Cc1ccc(F)cc1Cl)N/N=C/c1ccccc1OS(=O)(=O)c1ccc(C(F)(F)F)cc1` [Compound 10, 2-((E)-{2-[2-(2-chloro-4-fluorophenyl)acetyl]hydrazono}methyl)-phenyl 4-(trifluoromethyl)benzenesulfonate]: the IC50 was below 5 µM.

For the compound `COc1cccc(CC(=O)N/N=C/c2ccccc2OS(=O)(=O)c2cc(OC)ccc2OC)c1` [Compound 153, 2-((E)-{2-[2-(3-methoxyphenyl)acetyl]hydrazono}methyl)-phenyl 2,5-dimethoxybenzenesulfonate], the IC50 was below 5 µM.

In the case of `COc1ccc(CC(=O)N/N=C/c2ccccc2N(C)S(=O)(=O)c2ccc(C(F)(F)F)cc2)cc1OC` [Compound 246, N-[2-((E)-{[(3,4-dimethoxyphenyl)acetyl]hydrazono}methyl)-phenyl]-N-methyl-4-(trifluoromethyl)benzenesuIfonamide], the half-maximal inhibitory concentration (IC50) was below 5 µM.

Take `COc1ccc(CC(=O)N/N=C/c2ccccc2OS(=O)(=O)c2ccc(C(F)(F)F)cc2)c(OC)c1` [Compound 51, 2-((E)-{2-[2-(2,4-dimethoxyphenyl)acetyl]hydrazono}methyl)-phenyl 4-(trifluoromethyl)benzenesulfonate]: the IC50 was below 5 µM.

Turning to `O=C(Cc1cccc(Cl)c1)N/N=C/c1ccccc1NS(=O)(=O)c1ccc(C(F)(F)F)cc1` [Compound 242, N-[2-((E)-{[(3-chlorophenyl)acetyl]hydrazono}methyl)-phenyl]-4-(trifluoromethyl)benzenesulfonamide], the IC50 was above 50 µM.

Regarding `CC(C)c1ccc(S(=O)(=O)Oc2ccccc2/C=N/NC(=O)Cc2ccccc2)cc1` [Compound 135, 2-{(E)-[2-(2-phenylacetyl)hydrazono]methyl}phenyl 4-isopropylbenzenesulfonate], the IC50 was below 5 µM.

As for `O=C(N/N=C/c1ccccc1OS(=O)(=O)c1ccc(C(F)(F)F)cc1)c1cnccc1C(F)(F)F` [Compound 89, 2-[(E)-(2-{[4-(trifluoromethyl)pyridin-3-yl]carbonyl}hydrazono)methyl]phenyl 4-(trifluoromethyl)benzenesulfonate], the IC50 lay in the range of 5 to 50 µM.

As for `O=C(Cc1cc(C(F)(F)F)ccc1C(F)(F)F)N/N=C/c1ccccc1OS(=O)(=O)c1ccc(C(F)(F)F)cc1` [Compound 32, 2-[(E)-(2-{2-[2,5-bis(trifluoromethyl)phenyl]acetyl}hydrazono)-methyl]phenyl 4-(trifluoromethyl)benzenesulfonate], the IC50 is below 5 µM.

For the compound `COc1cccc(CC(=O)N/N=C/c2ccccc2OS(=O)(=O)c2ccc(OC)c(OC)c2)c1` [Compound 152, 2-((E)-{2-[2-(3-methoxyphenyl)acetyl]hydrazono}methyl)-phenyl 3,4-dimethoxybenzenesulfonate], the IC50 is below 5 µM.

`C/C(=N\NC(=O)Cc1ccc(Cl)c(Cl)c1)c1ccccc1OS(=O)(=O)c1ccc(C(F)(F)F)cc1` [Compound 223, 2-{(1E)-N-[(3,4-dichlorophenyl)acetyl]ethanehydrazonoyl}-phenyl 4-(trifluoromethyl)benzenesulfonate]: the IC50 was above 50 µM.

Regarding `O=C(N/N=C/c1ccccc1OS(=O)(=O)c1ccc(C(F)(F)F)cc1)c1ccccc1F` [Compound 90, 2-{(E)-[2-(2-fluorobenzoyl)hydrazono]methyl}phenyl 4-(trifluoromethyl)benzenesulfonate], the IC50 was in the range of 5 to 50 µM.

In the case of `N#Cc1cccc(S(=O)(=O)Oc2ccccc2/C=N/NC(=O)Cc2ccccc2)c1` [Compound 114, 2-{(E)-[2-(2-phenylacetyl)hydrazono]methyl}phenyl 3-cyanobenzenesulfonate], the IC50 is above 50 µM.

Regarding `O=C(Cc1c(F)ccc(F)c1F)N/N=C/c1ccccc1OS(=O)(=O)c1ccc(C(F)(F)F)cc1` [Compound 27, 2-((E)-{2-[2-(2,3,6-trifluorophenyl)acetyl]hydrazono}methyl)-phenyl 4-(trifluoromethyl)benzenesulfonate], the IC50 is below 5 µM.

Turning to `O=C(Cc1cc(F)cc(C(F)(F)F)c1)N/N=C/c1ccccc1OS(=O)(=O)c1ccc(C(F)(F)F)cc1` [Compound 23, 2-[(E)-(2-{2-[3-fluoro-5-(trifluoromethyl)phenyl]acetyl}hydrazono)-methyl]phenyl 4-(trifluoromethyl)benzenesulfonate], the IC50 is below 5 µM.

Turning to `COc1cccc(CC(=O)N/N=C/c2ccccc2OS(=O)(=O)c2ccc(-c3cc(C(F)(F)F)on3)s2)c1` [Compound 192, 2-((E)-{2-[2-(3-methoxyphenyl)acetyl]hydrazono}methyl)-phenyl 5-[5-(trifluoromethyl)isoxazol-3-yl]thiophene-2-sulfonate], the IC50 is below 5 µM.

Consider `O=C(Cc1ccccc1)N/N=C/c1ccccc1OS(=O)(=O)c1ccc(Cl)cc1Cl` [Compound 124, 2-{(E)-[2-(2-phenylacetyl)hydrazono]methyl}phenyl2,4-dichlorobenzenesulfonate], for which the IC50 is below 5 µM.

The assay is the same for the next values; noted with them: Hepatitis C virus, Huh-7, 72 h.
`O=C(CC1CC2CCC1C2)N/N=C/c1ccccc1OS(=O)(=O)c1ccc(C(F)(F)F)cc1` (stereo not drawn) [Compound 80, 2-{(E)-[2-(2-bicyclo[2.2.1]hept-2-ylacetyl)hydrazono]methyl}phenyl 4-(trifluoromethyl)benzenesulfonate]: the IC50 is below 5 µM.
